According to the NIST ThermoML archive (doi:10.1016/j.jct.2006.08.002):

Experiment: xn = mol fraction of the nth substance listed
Details: Fluid (supercritical or subcritical phases), Constant-volume piezometry

CCO [ethanol] + O
Details	mass density [kg/m3]
598.15 K, 15540 kPa, x1 = 0.2	308.36
598.15 K, 15600 kPa, x1 = 0.8	243.3
598.15 K, 15640 kPa, x1 = 0.2	325.01
598.15 K, 16230 kPa, x1 = 0.8	260.09
598.15 K, 16810 kPa, x1 = 0.2	420.24
598.15 K, 17080 kPa, x1 = 0.8	283.38
598.15 K, 18140 kPa, x1 = 0.8	306.39
598.15 K, 18350 kPa, x1 = 0.8	311.71
598.15 K, 19160 kPa, x1 = 0.5	326.69
598.15 K, 21410 kPa, x1 = 0.8	366.53
598.15 K, 21610 kPa, x1 = 0.5	384.81
598.15 K, 21850 kPa, x1 = 0.5	418.8
598.15 K, 22460 kPa, x1 = 0.8	381.79
598.15 K, 24130 kPa, x1 = 0.5	420.47
598.15 K, 24210 kPa, x1 = 0.5	423.68
598.15 K, 24610 kPa, x1 = 0.8	404.76
598.15 K, 27590 kPa, x1 = 0.2	547.13
598.15 K, 28350 kPa, x1 = 0.8	438.59
598.15 K, 28670 kPa, x1 = 0.5	462.7
598.15 K, 38940 kPa, x1 = 0.5	520.65
598.15 K, 48240 kPa, x1 = 0.2	617.36
598.15 K, 48500 kPa, x1 = 0.5	554.28
603.15 K, 10470 kPa, x1 = 0.2	67.54
603.15 K, 12120 kPa, x1 = 0.5	117.18
603.15 K, 14860 kPa, x1 = 0.5	170.89
603.15 K, 16860 kPa, x1 = 0.2	350.86
603.15 K, 16940 kPa, x1 = 0.5	234.07
603.15 K, 18730 kPa, x1 = 0.5	293.15
613.15 K, 23290 kPa, x1 = 0.2	452.8
623.15 K, 6210 kPa, x1 = 0.8	53.01
623.15 K, 7610 kPa, x1 = 0.5	55.79
623.15 K, 9230 kPa, x1 = 0.5	69.05
623.15 K, 10590 kPa, x1 = 0.5	84.15
623.15 K, 11070 kPa, x1 = 0.8	114.64
623.15 K, 13180 kPa, x1 = 0.5	117.07
623.15 K, 13400 kPa, x1 = 0.2	89.94
623.15 K, 15510 kPa, x1 = 0.8	187.93
623.15 K, 16770 kPa, x1 = 0.2	137.9
623.15 K, 18300 kPa, x1 = 0.8	242.99
623.15 K, 19450 kPa, x1 = 0.2	221.42
623.15 K, 20470 kPa, x1 = 0.8	283.01
623.15 K, 20590 kPa, x1 = 0.2	286.35
623.15 K, 21000 kPa, x1 = 0.2	307.94
623.15 K, 21380 kPa, x1 = 0.2	324.56
623.15 K, 21860 kPa, x1 = 0.8	305.99
623.15 K, 21920 kPa, x1 = 0.2	350.47
623.15 K, 22240 kPa, x1 = 0.8	311.3
623.15 K, 24920 kPa, x1 = 0.2	420.24
623.15 K, 26360 kPa, x1 = 0.8	366.04
623.15 K, 27820 kPa, x1 = 0.8	381.27
623.15 K, 27940 kPa, x1 = 0.5	384.27
623.15 K, 30710 kPa, x1 = 0.8	404.2
623.15 K, 31220 kPa, x1 = 0.5	418.2
623.15 K, 31480 kPa, x1 = 0.5	419.87
623.15 K, 31720 kPa, x1 = 0.5	423.08
623.15 K, 36430 kPa, x1 = 0.8	444.29
623.15 K, 37340 kPa, x1 = 0.5	462.02
623.15 K, 41330 kPa, x1 = 0.2	546.22
623.15 K, 50360 kPa, x1 = 0.5	519.83
628.15 K, 19790 kPa, x1 = 0.8	259.69
628.15 K, 36970 kPa, x1 = 0.8	437.84
633.15 K, 11600 kPa, x1 = 0.2	67.45
633.15 K, 13740 kPa, x1 = 0.5	117.01
633.15 K, 17410 kPa, x1 = 0.5	170.64
633.15 K, 23850 kPa, x1 = 0.5	292.69
633.15 K, 26000 kPa, x1 = 0.5	326.07
638.15 K, 21420 kPa, x1 = 0.5	233.65
643.15 K, 35160 kPa, x1 = 0.2	451.97
648.15 K, 6600 kPa, x1 = 0.8	52.95
648.15 K, 8080 kPa, x1 = 0.5	55.72
648.15 K, 9890 kPa, x1 = 0.5	68.96
648.15 K, 11430 kPa, x1 = 0.5	84.05
648.15 K, 12050 kPa, x1 = 0.8	114.5
648.15 K, 14470 kPa, x1 = 0.5	116.92
648.15 K, 14680 kPa, x1 = 0.2	89.83
648.15 K, 17440 kPa, x1 = 0.8	187.69
648.15 K, 19110 kPa, x1 = 0.2	137.73
648.15 K, 23400 kPa, x1 = 0.2	221.13
648.15 K, 25670 kPa, x1 = 0.8	305.59
648.15 K, 25860 kPa, x1 = 0.2	285.96
648.15 K, 26120 kPa, x1 = 0.8	310.89
648.15 K, 26740 kPa, x1 = 0.2	307.52
648.15 K, 28730 kPa, x1 = 0.2	349.97
648.15 K, 31420 kPa, x1 = 0.8	365.54
648.15 K, 33230 kPa, x1 = 0.8	380.75
648.15 K, 33660 kPa, x1 = 0.2	420.24
648.15 K, 34330 kPa, x1 = 0.5	383.73
648.15 K, 36760 kPa, x1 = 0.8	403.64
648.15 K, 39020 kPa, x1 = 0.5	419.27
653.15 K, 19550 kPa, x1 = 0.2	137.7
653.15 K, 21530 kPa, x1 = 0.8	242.62
653.15 K, 22750 kPa, x1 = 0.8	259.36
653.15 K, 24460 kPa, x1 = 0.8	282.58
653.15 K, 26990 kPa, x1 = 0.8	310.81
653.15 K, 28660 kPa, x1 = 0.2	324.03
653.15 K, 34300 kPa, x1 = 0.8	380.65
653.15 K, 35620 kPa, x1 = 0.5	383.63
653.15 K, 40110 kPa, x1 = 0.5	417.48
653.15 K, 40890 kPa, x1 = 0.5	422.34
653.15 K, 44100 kPa, x1 = 0.8	437.21
653.15 K, 48080 kPa, x1 = 0.5	461.19
673.15 K, 6990 kPa, x1 = 0.8	52.89
673.15 K, 8570 kPa, x1 = 0.5	55.65
673.15 K, 10540 kPa, x1 = 0.5	68.88
673.15 K, 12250 kPa, x1 = 0.5	83.95
673.15 K, 12980 kPa, x1 = 0.2	67.32
673.15 K, 13010 kPa, x1 = 0.8	114.36
673.15 K, 15740 kPa, x1 = 0.5	116.78
673.15 K, 15940 kPa, x1 = 0.2	89.72
673.15 K, 19310 kPa, x1 = 0.8	187.46
673.15 K, 20680 kPa, x1 = 0.5	170.3
673.15 K, 21310 kPa, x1 = 0.2	137.56
673.15 K, 23620 kPa, x1 = 0.8	242.38
673.15 K, 25130 kPa, x1 = 0.8	259.1
673.15 K, 25740 kPa, x1 = 0.5	233.23
673.15 K, 27230 kPa, x1 = 0.8	282.28
673.15 K, 27430 kPa, x1 = 0.2	220.84
673.15 K, 29500 kPa, x1 = 0.8	305.19
673.15 K, 30040 kPa, x1 = 0.8	310.49
673.15 K, 30620 kPa, x1 = 0.5	292.07
673.15 K, 31230 kPa, x1 = 0.2	285.57
673.15 K, 32510 kPa, x1 = 0.2	307.09
673.15 K, 33730 kPa, x1 = 0.2	323.66
673.15 K, 34050 kPa, x1 = 0.5	325.37
673.15 K, 35510 kPa, x1 = 0.2	349.48
673.15 K, 36420 kPa, x1 = 0.8	365.05
673.15 K, 38700 kPa, x1 = 0.8	380.23
673.15 K, 40850 kPa, x1 = 0.5	383.2
673.15 K, 42660 kPa, x1 = 0.2	420.24
673.15 K, 42950 kPa, x1 = 0.8	403.08
673.15 K, 46620 kPa, x1 = 0.5	418.66
673.15 K, 47140 kPa, x1 = 0.2	451.15
